# Target: T1, Ubiquitin carboxyl-terminal hydrolase 19 (Homo sapiens, UniProt O94966)
# T1 sequence (O94966 whole entry): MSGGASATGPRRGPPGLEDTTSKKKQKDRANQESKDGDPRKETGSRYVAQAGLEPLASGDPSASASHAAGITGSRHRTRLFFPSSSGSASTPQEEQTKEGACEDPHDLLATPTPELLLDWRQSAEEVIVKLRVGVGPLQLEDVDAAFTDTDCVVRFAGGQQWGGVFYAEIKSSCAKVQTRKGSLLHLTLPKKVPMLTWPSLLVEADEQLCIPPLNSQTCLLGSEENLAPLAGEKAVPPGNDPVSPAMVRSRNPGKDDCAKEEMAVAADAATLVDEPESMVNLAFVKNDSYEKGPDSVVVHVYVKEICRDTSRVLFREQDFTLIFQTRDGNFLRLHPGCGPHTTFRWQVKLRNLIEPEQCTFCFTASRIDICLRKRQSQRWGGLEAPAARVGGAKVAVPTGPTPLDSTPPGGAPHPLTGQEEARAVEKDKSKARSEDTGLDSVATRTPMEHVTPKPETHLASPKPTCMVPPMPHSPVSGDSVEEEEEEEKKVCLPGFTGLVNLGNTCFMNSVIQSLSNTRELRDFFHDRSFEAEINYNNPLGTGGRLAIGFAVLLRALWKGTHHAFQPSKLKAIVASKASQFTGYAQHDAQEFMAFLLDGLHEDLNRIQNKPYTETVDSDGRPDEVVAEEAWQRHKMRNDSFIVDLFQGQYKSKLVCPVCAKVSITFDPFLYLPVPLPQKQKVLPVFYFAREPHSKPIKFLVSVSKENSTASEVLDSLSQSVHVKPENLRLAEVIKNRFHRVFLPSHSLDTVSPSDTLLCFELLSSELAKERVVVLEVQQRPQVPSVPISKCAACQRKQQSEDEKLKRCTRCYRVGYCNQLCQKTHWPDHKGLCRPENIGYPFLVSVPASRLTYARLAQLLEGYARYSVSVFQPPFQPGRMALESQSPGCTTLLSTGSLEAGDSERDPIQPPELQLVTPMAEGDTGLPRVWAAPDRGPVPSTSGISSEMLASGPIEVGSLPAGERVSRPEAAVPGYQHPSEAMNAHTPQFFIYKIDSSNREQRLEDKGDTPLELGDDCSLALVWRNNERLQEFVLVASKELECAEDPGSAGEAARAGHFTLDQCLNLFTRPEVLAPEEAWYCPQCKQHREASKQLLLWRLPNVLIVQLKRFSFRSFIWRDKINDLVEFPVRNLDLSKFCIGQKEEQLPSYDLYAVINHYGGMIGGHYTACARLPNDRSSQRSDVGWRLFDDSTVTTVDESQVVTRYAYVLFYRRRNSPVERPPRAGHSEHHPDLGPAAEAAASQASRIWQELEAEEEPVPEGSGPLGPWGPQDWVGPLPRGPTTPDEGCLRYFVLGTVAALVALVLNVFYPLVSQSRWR
# Assay: Inhibition of C-terminal His6-tagged recombinant human USP19 using iso-peptide ubiquitin-Lys-TAMRA as substrate incubated for 30 mins and measured after 90 mins by fluorescent polarization assay
row,IC50,Compound
1,< 500 nM,N[C@H]1CCN(C(=O)N2CC[C@@](O)(Cn3cnc(-c4ccccc4)cc3=O)C3(CCCC3)C2)[C@H](c2ccccc2)C1
2,< 500 nM,N[C@@H]1CCN(C(=O)N2CC[C@@](O)(Cn3cnc(-c4ccccc4)cc3=O)C3(CCCC3)C2)[C@H](c2ccccc2)C1
3,< 500 nM,N=S1(=O)CCN(C(=O)N2CC[C@@](O)(Cn3cnc(-c4ccccc4)cc3=O)C3(CCCC3)C2)[C@H](c2cc(F)ccc2F)C1 (stereo partly drawn)

# Source: ChEMBL document CHEMBL5052842, “Pharmaceutical compounds and their use as inhibitors of ubiquitin specific protease 19 (usp19)” (2020)
